Reference: US11000033B2, “Ketone or oxime compound, and herbicide” (NISSAN CHEMICAL CORPORATION, priority 2014, dated 2021)

How the values were obtained:
Type in all cases: in vivo
soybean [1] = test: Test Example 4: effect on crop by soil treatment (symbol d); conditions: for d: soybean, effect grade on crop: 320 g/ha
Method in brief: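 The test used sterilized diluvial soil. Seed was set down in spots and overlaid with about 1.5 cm of soil before growth in a greenhouse kept at 25° C. to 30° C.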

[2] = system: directly sowed rice plant; test: Test Example 3: effect on crop by foliage application, Wagner pot (symbol b); conditions: application herbicide amount 320 g/ha; for b (directly sowed rice plant) effect on crop grade: Table 24
Method in brief: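 Wagner pot (1/10000 are), alluvial soil, submerged 0.1–0.5 cm; sown E. crus-galli var. crus-galli, L. chinensis, C. difformis, rice; greenhouse 25–30 °C.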

rapeseed = test: Test Example 5: effect on crop by foliage application, plastic box (symbol g); conditions: 320 g/ha, 3 weeks after application
Method in brief: (§1)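 Greenhouse culture at 25° C. to 30° C. followed spot-like sowing into sterilized diluvial soil, with seed covered by roughly 1.5 cm of soil.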

Stellaria media = test: Test Example 4: herbicidal effect by soil treatment (symbol P)
Method in brief: (§2)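 Seeds were sown in sterilized diluvial soil, covered with about 1.5 cm of soil, and the soil surface was sprayed with a water-diluted emulsion of the compound at a predetermined rate. Plants grew in a greenhouse at 25° C. to 30° C.; effects were scored visually 3 weeks after application.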

beet = test: Test Example 5: effect on crop by foliage application, plastic box (symbol f); conditions: 320 g/ha, 3 weeks after application
Method in brief: as §1

Veronica persica = test: Test Example 4: herbicidal effect by soil treatment (symbol R)
Method in brief: as §2

[3] = system: Echinochloa crus-galli var. crus-galli; test: Test Example 5: herbicidal effect by foliage application, plastic box (symbol H); conditions: 320 g/ha, 3 weeks after application
Method in brief: (§3)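 Visual herbicidal score, taken three weeks post-application, of seedlings sprayed on the foliage with water-diluted emulsion at a predetermined amount; plants were 14 days old, greenhouse-raised at 25° C. to 30° C.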

Setaria viridis [4] = test: Test Example 4: herbicidal effect by soil treatment (symbol G)
Method in brief: as §2

Monochoria vaginalis = test: Test Example 2: herbicidal activity, application during weed generation in submerged conditions (symbol C); conditions: Table 23; application herbicide amount 320 g/ha; grade 0-5 by criteria of Test Example 1
Method in brief: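 Read-out: herbicidal effect on each species rated on a visual scale 3 weeks after treatment. Plants were raised together from seed in flooded alluvial soil (4 cm water) at 25° C. to 30° C. and treated at one to two leaves by water-surface application of diluted emulsion.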

soybean [5] = test: Test Example 5: effect on crop by foliage application, plastic box (symbol d); conditions: 320 g/ha, 3 weeks after application
Method in brief: as §1

Scirpus juncoides = test: Test Example 1: herbicidal activity, application before weed generation in submerged conditions (symbol B); conditions: application herbicide amount 320 g/ha
Method in brief: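 Scores run 0 to 5 by herbicidal ratio, with 5 meaning 90% or more and 0 meaning 5% or lower, read 3 weeks after treatment. Compound was applied as a diluted emulsion to the water surface of submerged alluvial-soil pots on the day weed seeds were sown.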

Setaria viridis [6] = test: Test Example 5: herbicidal effect by foliage application, plastic box (symbol G); conditions: 320 g/ha, 3 weeks after application
Method in brief: as §3

[7] = system: Echinochloa crus-galli var. crus-galli; test: Test Example 4: herbicidal effect by soil treatment (symbol H)
Method in brief: as §2

Galium spurium = test: Test Example 5: herbicidal effect by foliage application, plastic box (symbol Q); conditions: 320 g/ha, 3 weeks after application
Method in brief: as §3

Digitaria ciliaris = test: Test Example 4: herbicidal effect by soil treatment (symbol F)
Method in brief: as §2

[8] = application herbicide amount 320 g/ha

| SMILES | d: soybean, effect grade on crop (soybean [1]) | effect on crop b (directly sowed rice plant), grade 0-5 [2] | g: rapeseed, effect on crop (criteria 0-5) (rapeseed) | P: Stellaria media, herbicidal effect grade (Stellaria media; 320 g/ha) | f: beet, effect on crop (criteria 0-5) (beet) | R: Veronica persica, herbicidal effect grade (Veronica persica; 320 g/ha) | H: Echinochloa crus-galli var. crus-galli, herbicidal effect (criteria 0-5) [3] | G: Setaria viridis, herbicidal effect grade (Setaria viridis [4]; 320 g/ha) | Herbicidal effect grade, C: Monochoria vaginalis (Monochoria vaginalis) | d: soybean, effect on crop (criteria 0-5) (soybean [5]) | Herbicidal effect grade, B: Scirpus juncoides (Scirpus juncoides) | G: Setaria viridis, herbicidal effect (criteria 0-5) (Setaria viridis [6]) | b (directly sowed rice plant) effect on crop grade [2] | g: rapeseed, effect on crop grade (rapeseed) | f: beet, effect on crop grade (beet) | H: Echinochloa crus-galli var. crus-galli, herbicidal effect grade [3] | d: soybean, effect on crop grade (soybean [5]) | B (Scirpus juncoides) herbicidal effect grade (Scirpus juncoides) | G: Setaria viridis, herbicidal effect grade (Setaria viridis [6]) | Q: Galium spurium, herbicidal effect grade (Galium spurium) | further results |
| --- | --- | --- | --- | --- | --- | --- | --- | --- | --- | --- | --- | --- | --- | --- | --- | --- | --- | --- | --- | --- | --- |
| CC(CC1CC(O)=C(c2c(C)cc(C)cc2C)C1=O)=NOCC(N)=O (stereo not drawn) [1-124] | 0 (Herbicidal ratio of 5% or lower (almost no effect)) | 5 (Herbicidal ratio of 90% or more (almost completely withered)) | 4 (Herbicidal ratio of 70% or higher and lower than 90%) | 0 (Herbicidal ratio of 5% or lower (almost no effect)) | 0 (Herbicidal ratio of 5% or lower (almost no effect)) | 0 (Herbicidal ratio of 5% or lower (almost no effect)) | 5 (Herbicidal ratio of 90% or more (almost completely withered)) | 3 (Herbicidal ratio of 40% or higher and lower than 70%) | 0 (Herbicidal ratio of 5% or lower (almost no effect)) | 0 (Herbicidal ratio of 5% or lower (almost no effect)) | 0 (Herbicidal ratio of 5% or lower (almost no effect)) | 2 (Herbicidal ratio of 20% or higher and lower than 40%) | – | – | – | – | – | – | – | – | H: Echinochloa crus-galli var. crus-galli, herbicidal effect grade ([7]; 320 g/ha): 1 (Herbicidal ratio of 5% or higher and lower than 20%); Q: Galium spurium, herbicidal effect (criteria 0-5) (Galium spurium): 0 (Herbicidal ratio of 5% or lower (almost no effect)); F: Digitaria ciliaris, herbicidal effect grade (Digitaria ciliaris; 320 g/ha): 0 (Herbicidal ratio of 5% or lower (almost no effect)) |
| CC(CC1CC(O)=C(c2c(C)cc(C)cc2C)C1=O)=NOC1CCCC1 (stereo not drawn) [1-106] | 0 (Herbicidal ratio of 5% or lower (almost no effect)) | 5 (Herbicidal ratio of 90% or more (almost completely withered)) | 3 (Herbicidal ratio of 40% or higher and lower than 70%) | 0 (Herbicidal ratio of 5% or lower (almost no effect)) | 0 (Herbicidal ratio of 5% or lower (almost no effect)) | 0 (Herbicidal ratio of 5% or lower (almost no effect)) | 5 (Herbicidal ratio of 90% or more (almost completely withered)) | 5 (Herbicidal ratio of 90% or more (almost completely withered)) | 0 (Herbicidal ratio of 5% or lower (almost no effect)) | 0 (Herbicidal ratio of 5% or lower (almost no effect)) | 3 (Herbicidal ratio of 40% or higher and lower than 70%) | 5 (Herbicidal ratio of 90% or more (almost completely withered)) | – | – | – | – | – | – | – | – | H: Echinochloa crus-galli var. crus-galli, herbicidal effect grade ([7]; 320 g/ha): 5 (Herbicidal ratio of 90% or more (almost completely withered)); Q: Galium spurium, herbicidal effect (criteria 0-5) (Galium spurium): 0 (Herbicidal ratio of 5% or lower (almost no effect)); F: Digitaria ciliaris, herbicidal effect grade (Digitaria ciliaris; 320 g/ha): 5 (Herbicidal ratio of 90% or more (almost completely withered)) |
| CC#Cc1cc(C)c(C2=C(O)CC(CC(=NOCCOC)C(C)C)C2=O)c(C)c1 (stereo not drawn) [9-023] | – | – | – | – | – | – | – | – | 1 (Herbicidal ratio of 5% or higher and lower than 20%) | – | – | – | 5 (Herbicidal ratio of 90% or more (almost completely withered)) | 5 (Herbicidal ratio of 90% or more (almost completely withered)) | 0 (Herbicidal ratio of 5% or lower (almost no effect)) | 5 (Herbicidal ratio of 90% or more (almost completely withered)) | 0 (Herbicidal ratio of 5% or lower (almost no effect)) | 5 (Herbicidal ratio of 90% or more (almost completely withered)) | 5 (Herbicidal ratio of 90% or more (almost completely withered)) | 0 (Herbicidal ratio of 5% or lower (almost no effect)) | Effect on crop grade, d: soybean (soybean [1]; [8]): 0 (Herbicidal ratio of 5% or lower (almost no effect)); Herbicidal effect grade, P: Stellaria media (Stellaria media; [8]): 0 (Herbicidal ratio of 5% or lower (almost no effect)); Herbicidal effect grade, R: Veronica persica (Veronica persica; [8]): 0 (Herbicidal ratio of 5% or lower (almost no effect)); Herbicidal effect grade, G: Setaria viridis (Setaria viridis [4]; [8]): 5 (Herbicidal ratio of 90% or more (almost completely withered)); Herbicidal effect grade, H: Echinochloa crus-galli var. crus-galli [7, 8]: 5 (Herbicidal ratio of 90% or more (almost completely withered)); Herbicidal effect grade, F: Digitaria ciliaris (Digitaria ciliaris; [8]): 5 (Herbicidal ratio of 90% or more (almost completely withered)) |
| COCCON=C(CC1CC(O)=C(c2c(C)cc(-n3cc(Cl)cn3)cc2C)C1=O)C(C)C (stereo not drawn) [9-022] | – | – | – | – | – | – | – | – | 0 (Herbicidal ratio of 5% or lower (almost no effect)) | – | – | – | 5 (Herbicidal ratio of 90% or more (almost completely withered)) | 0 (Herbicidal ratio of 5% or lower (almost no effect)) | 0 (Herbicidal ratio of 5% or lower (almost no effect)) | 5 (Herbicidal ratio of 90% or more (almost completely withered)) | 0 (Herbicidal ratio of 5% or lower (almost no effect)) | 3 (Herbicidal ratio of 40% or higher and lower than 70%) | 5 (Herbicidal ratio of 90% or more (almost completely withered)) | 0 (Herbicidal ratio of 5% or lower (almost no effect)) | Effect on crop grade, d: soybean (soybean [1]; [8]): 0 (Herbicidal ratio of 5% or lower (almost no effect)); Herbicidal effect grade, P: Stellaria media (Stellaria media; [8]): 0 (Herbicidal ratio of 5% or lower (almost no effect)); Herbicidal effect grade, R: Veronica persica (Veronica persica; [8]): 0 (Herbicidal ratio of 5% or lower (almost no effect)); Herbicidal effect grade, G: Setaria viridis (Setaria viridis [4]; [8]): 5 (Herbicidal ratio of 90% or more (almost completely withered)); Herbicidal effect grade, H: Echinochloa crus-galli var. crus-galli [7, 8]: 5 (Herbicidal ratio of 90% or more (almost completely withered)); Herbicidal effect grade, F: Digitaria ciliaris (Digitaria ciliaris; [8]): 5 (Herbicidal ratio of 90% or more (almost completely withered)) |
| CCC(CC1CC(O)=C(c2c(C)cc(-c3ccccc3)cc2OC)C1=O)=NOC (mixture of isomers) [13-004] | – | – | – | – | – | – | – | – | 4 (Herbicidal ratio of 70% or higher and lower than 90%) | – | – | – | 5 (Herbicidal ratio of 90% or more (almost completely withered)) | 4 (Herbicidal ratio of 70% or higher and lower than 90%) | 0 (Herbicidal ratio of 5% or lower (almost no effect)) | 5 (Herbicidal ratio of 90% or more (almost completely withered)) | 1 (Herbicidal ratio of 5% or higher and lower than 20%) | 5 (Herbicidal ratio of 90% or more (almost completely withered)) | 5 (Herbicidal ratio of 90% or more (almost completely withered)) | 4 (Herbicidal ratio of 70% or higher and lower than 90%) | d: soybean, effect on crop grade (soybean [1]; [8]): 1 (Herbicidal ratio of 5% or higher and lower than 20%); P: Stellaria media, herbicidal effect grade (Stellaria media; [8]): 1 (Herbicidal ratio of 5% or higher and lower than 20%); R: Veronica persica, herbicidal effect grade (Veronica persica; [8]): 3 (Herbicidal ratio of 40% or higher and lower than 70%); G: Setaria viridis, herbicidal effect grade (Setaria viridis [4]; [8]): 5 (Herbicidal ratio of 90% or more (almost completely withered)); H: Echinochloa crus-galli var. crus-galli, herbicidal effect grade [7, 8]: 5 (Herbicidal ratio of 90% or more (almost completely withered)); F: Digitaria ciliaris, herbicidal effect grade (Digitaria ciliaris; [8]): 5 (Herbicidal ratio of 90% or more (almost completely withered)) |
